In patent US10112941B2, “Tricyclic compounds as anticancer agents” (BRISTOL-MYERS SQUIBB COMPANY, priority 2013, dated 2018):

What follows are compounds tested against BRD4 (Homo sapiens, UniProt O60885) (assay: Time Resolved Fluorescence Resonance Energy Transfer (TR-FRET) binding assay, BRD4). Details: one of the FRET assays described; read-out: FRET BRD4 IC50.

CC(=O)NC(C)(C)c1ccc2c3ncc(-c4c(C)nnn4C)cc3n([C@H](c3ccccc3)C3CCOCC3)c2c1F [Example 462, N-{2-[3-(Dimethyl-1H-1,2,3-triazol-5-yl)-6-fluoro-5-[(S)-oxan-4-yl(phenyl)methyl]-5H-pyrido[3,2-b]indol-7-yl]propan-2-yl}acetamide] and Cc1nnn(C)c1-c1cnc2c3ccc(C(C)(C)NS(C)(=O)=O)c(F)c3n([C@H](c3ccccc3)C3CCOCC3)c2c1 [Example 463, N-{2-[3-(Dimethyl-1H-1,2,3-triazol-5-yl)-6-fluoro-5-[(S)-oxan-4-yl(phenyl)methyl]-5H-pyrido[3,2-b]indol-7-yl]propan-2-yl}methanesulfonamide] cannot be ordered by IC50: under 5 nM for the first, under 5 nM for the second.

Cc1noc(C)c1-c1cnc2c3c(F)cc(C(C)(C)O)cc3n([C@H](c3ccccc3)C3CCOCC3)c2c1 [Example 370, 2-[3-(Dimethyl-1,2-oxazol-4-yl)-9-fluoro-5-[(S)-oxan-4-yl(phenyl)methyl]-5H-pyrido[3,2-b]indol-7-yl]propan-2-ol] and [2H]C([2H])([2H])c1nnn(C)c1-c1cnc2c3c(OC)cc(C(C)(C)O)cc3n([C@H](c3ccccc3)C3CCOCC3)c2c1 [Example 273, 2-{9-Methoxy-3-[4-(^2H3)methyl-1-methyl-1H-1,2,3-triazol-5-yl]-5-[(S)-oxan-4-yl(phenyl)methyl]-5H-pyrido[3,2-b]indol-7-yl}propan-2-ol] cannot be ordered by IC50: under 5 nM for the first, under 5 nM for the second.

Cc1noc(C)c1-c1cnc2c3ccc(C(C)(C)O)cc3n([C@@H](CCC(F)(F)F)c3cscn3)c2c1 [Example 20] and Cc1noc(C)c1-c1cnc2c3ccc(C(C)(C)O)cc3n([C@H](CCC(F)(F)F)c3ccccc3C(F)(F)F)c2c1 [Example 84] cannot be ordered by IC50: under 25 nM for the first, under 1500 nM for the second.

Cc1nnn(C)c1-c1cnc2c3ccc(C(N)=O)c(F)c3n([C@H](c3ccccc3)C3CCOCC3)c2c1 [Example 460, 3-(Dimethyl-1H-1,2,3-triazol-5-yl)-6-fluoro-5-[(S)-oxan-4-yl(phenyl)methyl]-5H-pyrido[3,2-b]indole-7-carboxamide] and [2H]C([2H])(O)c1ccc2c3ncc(-c4c(C)nnn4C)cc3n([C@H](c3ccccc3)C3CCOCC3)c2c1 [Example 407, [3-(Dimethyl-1H-1,2,3-triazol-5-yl)-5-[(S)-oxan-4-yl(phenyl)methyl]-5H-pyrido[3,2-b]indol-7-yl](^2H2)methanol] cannot be ordered by IC50: under 5 nM for the first, under 5 nM for the second.

Cc1nnn(C)c1-c1cnc2c3ccc(C(C)(C)O)cc3n(C(c3ccc(F)cc3F)C3CCOCC3)c2c1 (single isomer, unassigned) [Example 135, 2-{5-[(2,4-Difluorophenyl)(oxan-4-yl)methyl]-3-(dimethyl-1H-1,2,3-triazol-5-yl)-5H-pyrido[3,2-b]indol-7-yl}propan-2-ol] and Cc1nnn(C)c1-c1cnc2c3ccc(C(C)(C)O)cc3n(C(c3ncccc3F)C3CCOCC3)c2c1 (single isomer, unassigned) [Example 293] cannot be ordered by IC50: under 5 nM for the first, under 5 nM for the second.

[2H]C([2H])([2H])c1nnn(C)c1-c1cnc2c3c(F)cc(S(C)(=O)=O)cc3n(C(c3ncccc3F)C3CCC(F)(F)CC3)c2c1 (stereo not shown) [Example 212, 2-[(4,4-Difluorocyclohexyl)({9-fluoro-7-methanesulfonyl-3-[4-(^2H3)methyl-1-methyl-1H-1,2,3-triazol-5-yl]-5H-pyrido[3,2-b]indol-5-yl})methyl]-3-fluoropyridine] and Cc1nnn(C)c1-c1cnc2c3c(F)cc(C(C)(C)O)cc3n(C(c3cc(F)ccc3F)C3CCOCC3)c2c1 (single isomer, unassigned) [Example 106, 2-{5-[(2,5-Difluorophenyl)(oxan-4-yl)methyl]-3-(dimethyl-1H-1,2,3-triazol-5-yl)-9-fluoro-5H-pyrido[3,2-b]indol-7-yl}propan-2-ol] cannot be ordered by IC50: under 5 nM for the first, under 5 nM for the second.

For Cc1cnn(C)c1-c1cnc2c3ccc(S(C)(=O)=O)cc3n([C@H](c3ccccc3)C3CCOCC3)c2c1 [Example 417, 5-{7-Methanesulfonyl-5-[(S)-oxan-4-yl(phenyl)methyl]-5H-pyrido[3,2-b]indol-3-yl}-1,4-dimethyl-1H-pyrazole], the IC50 was under 5 nM.
